Assay results reported in US20200237715A1, “COX-2 Inhibitors for the Treatment of Ocular Disease” (priority 2019, published 2020).
Where “and” joins values, the source holds several entries; their conditions need not be identical. Equal values may be shown once. Read-outs that look alike come from different tables or passages of the source. Values belong to the molecule of their own block, whether it stands above or below them.

Columns and labels:
[1] = topical nepafenac, Cmax, cited from earlier work
[2] = DEPOT sub-Tenon's sac, steady-state, cited from earlier work
[3] = Dexamethasone periocular DEPOT (sub-Tenon injection), retina-choroid concentrations, literature comparison; type: in vivo; details: dexamethasone sub-Tenon DEPOT versus SD-8381 DEPOT
Method: For comparison, the concentrations in the retina-choroid for a DEPOT of a similar lipophilic small molecule, dexamethasone, when placed very close to the retina (sub-Tenon injection) were 0.31 and 0.93 μM [Huang Z, Yang W, Zong Y, Qiu S, Chen X, Sun X, Zhou Y, Xie Z, and Gao Q. A study of the dexamethasone sodium phosphate release properties from a periocular capsular drug delivery system. Drug Delivery 2016:23; 839-847]. […] Also, these dexamethasone data are for a situation where drug delivery has been optimized.

Plasma protein binding = type: in vitro ADME
[4] = Rabbit study: subconjunctival DEPOT of the ethyl ester of SD-8381 in sesame oil, drug concentration in ocular tissues and plasma by LC-MS; type: in vivo, DB rabbits
Method: All reagents were obtained from Sigma-Aldrich with the exception that sesame oil was obtained from Sawall, 2965 Oakland Dr, Kalamazoo, Mich. The ethyl ester of SD-8381 was formulated in sesame oil as a saturated solution at room temperature. Saturation was assured by warming under water warm to the touch for 10 minutes and noting that upon returning to room temperature the powder was in equilibrium with what was apparently a crystalline form of the drug in that the small amount of remaining drug was now transparent (for example, the compound had clearly dissolved and crystallized out of solution). The formulation was checked for topical instillation irritancy. Two male DB rabbits were sedated with isoflurane vapors to effect. Eyes were anesthetized with topical proparacaine, the area treated with ophthalmic betadine and rinsed with sterile saline. The test article was injected (0.05 mL) as a subconjunctival DEPOT to two male DB rabbits, OU using a 29 g needle.
The rabbits were sacrificed at a 6-days. Samples collected were (bilateral) aqueous humor, iris plus ciliary body, cornea, conjunctiva, sclera, choroid, retina, lens, vitreous humor and plasma which were placed in tared vials and stored at −20° C. prior to analysis. Care was taken to not cross contaminate fields by dissecting high concentration tissues as separately as possible from other tissues.
The free acid of SD-8381 was formed enzymatically using ethyl 6,8-dichloro-2-(trifluoromethyl)-2H-chromene-3-carboxylate and porcine esterase (all reagents and chemicals are from Sigma-Aldrich). The reaction was initiated by adding 5 mg of compound in methanol to 8 mg of esterase in 250 μL of 50 mM potassium phosphate pH 8 buffer. The reaction proceeded at 37° C. and was complete after 3 hours. Conversion of the […] to the free acid was monitored using HPLC-UV with 254 nm detection and confirmed by flow injection analysis using a Waters Quattro Micro mass spectrometer in negative ion mode at unit resolution. SD-8381 free acid was purified by HPLC fraction collection using a 4.6×250 mm Agilent Eclipse XDB-C18 column using 0.1% formic acid/H2O/acetonitrile mobiles phases. Fractions containing the free acid were dried in a weighed tube using a SpeedVac concentrator.
Free acid SD-8381 was reconstituted in methanol to establish w/v concentration standards for LC-MS analysis. Analytical standards were prepares using EDTA mouse plasma from BioVT. A dilution series of free acid SD-8381 in methanol were spiked into mouse plasma and each concentration was combined with 3 volumes of methanol containing 1 μM diclofenac as a surrogate internal standard as no stable-isotope labeled internal standard (SIL-IS) of SD-8381 is currently available. Standards and plasma blanks were vortex mixed and centrifuged at 13K×g for 5 minutes. Supernatant was transferred to glass insert vials and immediately analyzed by LC-MS analysis. Tissue samples were homogenized using a GE Healthcare sample grinding kit #80-6483-37 and 1 volume of DPBS containing 50% methanol. Proteins were precipitated using 2 additional volumes of methanol and vortex mixing for 5 minutes. Samples were centrifuged at 13K×g for 5 minutes. Supernatant was removed and dried in a SpeedVac concentrator under medium heat. Sample was reconstituted using methanol containing 1 uM Diclofenac. Samples were analyzed using a Waters nanoAcquity UPLC in-line with a high-resolution Waters Synapt G2-S mass spectrometer via an electrospray ion source. UPLC separation of used performed using a 0.375 mm×10 cm Waters XBridge C18 3.5 u column and a flow rate of 10 μL per minute. Mobile phases were 0.1% formic acid in water as mobile phase A and 0.1% formic acid in acetonitrile as mobile phase B. Gradient elution was accomplished with 1% B initial sample loading with ramping to 95% B at 3 minutes, holding at 95% B for 5 minutes, and returning to 1% B at 8.1 minutes. Total run time was 12 minutes and 5 μL of sample was injected per analysis. […]

[5] = DEPOT, steady-state, 6 days, high value of the same subject dropped
[6] = SD-8381 free acid measured, subconjunctival DEPOT 0.05 mL OU of ethyl ester in sesame oil, rabbits sacrificed at 6 days

SMILES: Nc1c(CC(=O)O)cccc1C(=O)c1ccccc1 [Amfenac, 2-amino-3-benzoylbenzeneacetic acid]
- Anterior choroid concentration [1]: (0.47) μM
- Anterior retina concentration [1]: (0.011) μM
- Posterior choroid concentration [1]: 0.042 µM
- Posterior retina concentration [1]: 0.00077 µM
- Anterior choroid concentration ([1]; listed as amfenac): 0.468 µM
- Anterior retina concentration ([1]; listed as amfenac): 0.011 µM
- Posterior choroid concentration ([1]; listed as amfenac): 0.0418 µM
- Posterior retina concentration ([1]; listed as amfenac): 0.000765 µM

- Retina-choroid concentration compared with SD-8381 [3]: almost two orders of magnitude less
SMILES: C[C@@H]1C[C@H]2[C@@H]3CCC4=CC(=O)C=C[C@]4(C)[C@@]3(F)[C@@H](O)C[C@]2(C)[C@@]1(O)C(=O)CO [Dexamethasone, dexamethasone]
- Choroid concentration [2]: 0.92 µM
- Retina concentration [2]: 0.31 µM
- Choroid concentration ([2]; listed as dexamethasone): 0.93 µM

SMILES: NC(=O)Cc1cccc(C(=O)c2ccccc2)c1N [Nepafenac, 2-amino-3-benzoylbenzeneacetamide]
- Anterior choroid concentration [1]: (0.71) μM
- Anterior retina concentration [1]: (0.11) μM
- Posterior choroid concentration [1]: 0.055 µM
- Posterior retina concentration [1]: 0.0027 µM
- Anterior choroid concentration ([1]; listed as nepafenac): 0.714 µM
- Anterior retina concentration ([1]; listed as nepafenac): 0.110 µM
- Posterior choroid concentration ([1]; listed as nepafenac): 0.0551 µM
- Posterior retina concentration ([1]; listed as nepafenac): 0.00272 µM

- Binding to plasma proteins (Plasma protein binding): highly bound to plasma proteins
- Choroid concentration, mean (n = 4) ([4]; DEPOT, steady-state, 6 days): 96 (n = 4) μM
- Retina concentration, mean (n = 4) ([4]; DEPOT, steady-state, 6 days): 13 (n = 4) μM
- Choroid concentration, average with high value dropped (n = 3) [4, 5]: 20.9 μM and 21 (n = 3)* μM
- Retina concentration, average with high value dropped (n = 3) [4, 5]: 5.17 μM and 5.2 (n = 3)* μM
- Plasma concentration relative to ocular tissues (fold less) ([4]; plasma versus ocular tissues): 10^2-10^4
SMILES: O=C(O)C1=Cc2cc(Cl)cc(Cl)c2OC1C(F)(F)F (stereo not drawn) [SD-8381, 6.8-Dichloro-2-trifluoromethyl-2H-1-benzopyran-3-carboxylic acid]
- Retina-choroid concentration at steady-state compared with nepafenac following topical administration ([4]; SD-8381 DEPOT versus literature nepafenac): approximately two orders of magnitude higher
- Choroid concentration, individual values [4, 6]: 322 µM and 9.78 µM and 2.43 µM and 50.4 µM
- Retina concentration, individual values [4, 6]: 36.8 µM and 2.01 µM and 9.14 µM and 4.37 µM

SMILES: CCOC(=O)C1=Cc2cc(Cl)cc(Cl)c2OC1C(F)(F)F (stereo not drawn) [ethyl ester of SD-8381, ethyl 6,8-dichloro-2-(trifluoromethyl)-2H-chromene-3-carboxylate]
- Adverse events (excessive scratching, redness, other signs of irritation and pain) ([4]; subconjunctival DEPOT 0.05 mL OU, saturated solution in sesame oil, two male DB rabbits): No apparent adverse events
